# Measured values reported in PubChem BioAssay AID2060609 (Molecular Pharmacology Branch, DTP, NCI, 2025).
# “And” between values parts separate entries of the source, which are not always exact repeats. Equal values may be shown once.
# Test system: 855422-203-R-J1-PDC complex spheroids, viability
# Experiment: Anticancer human tumor 855422-203-R-J1-PDC patient-derived bladder carcinoma cell line growth inhibition [CLK]
# Details: for viability, T/C: stronger effect = lower value
# Outline: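 Multi-cell-type spheroids combined patient-derived tumor cells with HUVEC endothelial cells and human mesenchymal stem cells. Paired agents were dosed in half-log steps down from about clinical Cmax, or from 10 microM where Cmax was unknown.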
# [1] = curve of first compound, second compound 0.0316 µM
# [2] = curve of first compound, second compound 0.1 µM
# [3] = curve of first compound, second compound 0.316 µM
# [4] = curve of first compound, second compound 1 µM
# [5] = curve of first compound, second compound 3.16 µM
# [6] = curve of first compound, second compound 10 µM
# [7] = second compound 0.0316 µM, first compound 0.000949 µM
# [8] = second compound 0.0316 µM, first compound 0.003 µM
# [9] = second compound 0.0316 µM, first compound 0.00949 µM
# [10] = second compound 0.0316 µM, first compound 0.03 µM
# [11] = second compound 0.0316 µM, first compound 0.0949 µM
# [12] = second compound 0.0316 µM, first compound 0.3 µM
# [13] = second compound 0.1 µM, first compound 0.000949 µM
# [14] = second compound 0.1 µM, first compound 0.003 µM
# [15] = second compound 0.1 µM, first compound 0.00949 µM
# [16] = second compound 0.1 µM, first compound 0.03 µM
# [17] = second compound 0.1 µM, first compound 0.0949 µM
# [18] = second compound 0.1 µM, first compound 0.3 µM
# [19] = second compound 0.316 µM, first compound 0.000949 µM
# [20] = second compound 0.316 µM, first compound 0.003 µM
# [21] = second compound 0.316 µM, first compound 0.00949 µM
# [22] = second compound 0.316 µM, first compound 0.03 µM
# [23] = second compound 0.316 µM, first compound 0.0949 µM
# [24] = second compound 0.316 µM, first compound 0.3 µM
# [25] = second compound 1 µM, first compound 0.000949 µM
# [26] = second compound 1 µM, first compound 0.003 µM
# [27] = second compound 1 µM, first compound 0.00949 µM
# [28] = second compound 1 µM, first compound 0.03 µM
# [29] = second compound 1 µM, first compound 0.0949 µM
# [30] = second compound 1 µM, first compound 0.3 µM
# [31] = second compound 3.16 µM, first compound 0.000949 µM
# [32] = second compound 3.16 µM, first compound 0.003 µM
# [33] = second compound 3.16 µM, first compound 0.00949 µM
# [34] = second compound 3.16 µM, first compound 0.03 µM
# [35] = second compound 3.16 µM, first compound 0.0949 µM
# [36] = second compound 3.16 µM, first compound 0.3 µM
# [37] = second compound 10 µM, first compound 0.000949 µM
# [38] = second compound 10 µM, first compound 0.003 µM
# [39] = second compound 10 µM, first compound 0.00949 µM
# [40] = second compound 10 µM, first compound 0.03 µM
# [41] = second compound 10 µM, first compound 0.0949 µM
# [42] = second compound 10 µM, first compound 0.3 µM
# 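Further: spheroids exposed to drugs for seven days before readout.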
# 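Wherever viability, T/C is given: 100% = DMSO vehicle control wells.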
compound,measurement,setting,value
C=CC(=O)Nc1cc(Nc2nccc(-c3cn(C)c4ccccc34)n2)c(OC)cc1N(C)CCN(C)C + CN1CCN(c2cc(C(=O)Nc3cc4cc(-c5cnn(C)c5)ccc4cn3)ccn2)CC1,IC50,[1],> 300 nM
same,IC50,[2],> 300 nM
same,IC50,[3],< 0.949 nM
same,IC50,[4],< 0.949 nM
same,IC50,[5],< 0.949 nM
same,IC50,[6],< 0.949 nM
same,"viability, T/C",[7],104%
same,"viability, T/C",[8],88.3%
same,"viability, T/C",[9],112%
same,"viability, T/C",[10],102%
same,"viability, T/C",[11],97.6%
same,"viability, T/C",[12],91.4%
same,"viability, T/C",[13],79.1%
same,"viability, T/C",[14],80.4%
same,"viability, T/C",[15],85.8%
same,"viability, T/C",[16],91.7%
same,"viability, T/C",[17],74.8%
same,"viability, T/C",[18],64.5%
same,"viability, T/C",[19],7.04%
same,"viability, T/C",[20],9.27%
same,"viability, T/C",[21],8.35%
same,"viability, T/C",[22],11.4%
same,"viability, T/C",[23],8.34%
same,"viability, T/C",[24],7.28%
same,"viability, T/C",[25],0.18%
same,"viability, T/C",[26],0.31%
same,"viability, T/C",[27],0.54%
same,"viability, T/C",[28],0.25%
same,"viability, T/C",[29],1.14%
same,"viability, T/C",[30],0.46%
same,"viability, T/C",[31],0.7%
same,"viability, T/C",[32],0.52%
same,"viability, T/C",[33],0.64%
same,"viability, T/C",[34],0.46%
same,"viability, T/C",[35],0.68%
same,"viability, T/C",[36],0.93%
same,"viability, T/C",[37],0.4%
same,"viability, T/C",[38],1.47%
same,"viability, T/C",[39],0.52%
same,"viability, T/C",[40],0.85%
same,"viability, T/C",[41],0.58%
same,"viability, T/C",[42],0.28%
CC(C)CC(NC(=O)C(Cc1ccccc1)NC(=O)c1cnccn1)B(O)O (stereo unspecified) + CN1CCN(c2cc(C(=O)Nc3cc4cc(-c5cnn(C)c5)ccc4cn3)ccn2)CC1,IC50,[1],< 0.949 nM
same,IC50,[2],< 0.949 nM
same,IC50,[3],< 0.949 nM
same,IC50,[4],< 0.949 nM
same,IC50,[5],< 0.949 nM
same,IC50,[6],< 0.949 nM
same,"viability, T/C",[7],2.28%
same,"viability, T/C",[8],0.31%
same,"viability, T/C",[9],0.27%
same,"viability, T/C",[10],0.43%
same,"viability, T/C",[11],0.41%
same,"viability, T/C",[12],0.27%
same,"viability, T/C",[13],2.61%
same,"viability, T/C",[14],0.37%
same,"viability, T/C",[15],0.29%
same,"viability, T/C",[16],0.43%
same,"viability, T/C",[17],0.35%
same,"viability, T/C",[18],0.28%
same,"viability, T/C",[19],0.57%
same,"viability, T/C",[20],0.22%
same,"viability, T/C",[21],0.27%
same,"viability, T/C",[22],0.27%
same,"viability, T/C",[23],1.06%
same,"viability, T/C",[24],0.19%
same,"viability, T/C",[25],0.21%
same,"viability, T/C",[26],0.19%
same,"viability, T/C",[27],0.12%
same,"viability, T/C",[28],0.19%
same,"viability, T/C",[29],0.16%
same,"viability, T/C",[30],0.16%
same,"viability, T/C",[31],0.36%
same,"viability, T/C",[32],0.15%
same,"viability, T/C",[33],1.95%
same,"viability, T/C",[34],0.11%
same,"viability, T/C",[35],0.78%
same,"viability, T/C",[36],0.11%
same,"viability, T/C",[37],0.29%
same,"viability, T/C",[38],0.19%
same,"viability, T/C",[39],2.1%
same,"viability, T/C",[40],0.2%
same,"viability, T/C",[41],0.22%
same,"viability, T/C",[42],0.32%
COC1C=CCC(C)C(C)S(=O)(=O)NC(=O)c2ccc3c(c2)N(CC2CCC21)CC1(CCCc2cc(Cl)ccc21)CO3 (stereo unspecified),"viability, T/C",compound 0.0316 µM,96% and 134%
same,"viability, T/C",compound 0.1 µM,105% and 90.2%
same,"viability, T/C",compound 0.316 µM,111% and 128%
same,"viability, T/C",compound 1 µM,103% and 137%
same,"viability, T/C",compound 3.16 µM,119% and 191%
same,"viability, T/C",compound 10 µM,6.05% and 30.3%
same,IC50,curve of compound,6060 nM and 8070 nM
